Laboratory results: patent US10125126B2, “N-cycloalkyl-N-[(heterocyclylphenyl)methylene]-(thio)carboxamide derivatives” (BAYER CROPSCIENCE AG, priority 2012, dated 2018)

Columns and labels:
Pyrenophora teres = assay: In vivo preventive test on Pyrenophora teres (barley); conditions: 500 ppm of active ingredient; barley plants; 14 days after contamination
How it was run: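 Barley ("Plaisant") grown at 22° C was sprayed at the 1-leaf stage (10 cm) with active ingredient in acetone/tween/DMSO/water, with solvent-only controls. After 24 h, leaves were inoculated with Pyrenophora teres spores (12 000 spores per mL) from 12-day cultures. % efficacy versus controls graded 14 days post-contamination.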

Alternaria brassicae = assay: In vivo preventive test on Alternaria brassicae (leaf spot on radish); conditions: 500 ppm of active ingredient; radish plants; 6 days after contamination
Procedure: In Vivo Preventive Test on Alternaria brassicae (Leaf Spot on Radish) […] Radish plants (“Pernod Clair” variety), sown in starter cups on a 50/50 peat soil pozzolana substrate and grown at 17° C., are treated at the cotyledon stage by spraying with the active ingredient prepared as described above. Plants, used as controls, are treated with the mixture of acetone/tween/DMSO/water not containing the active material. After 24 hours, the plants are contaminated by spraying the cotyledons with an aqueous suspension of Alternaria brassicae spores (50 000 spores per mL). The spores are collected from a 15-day-old culture. The contaminated radish plants are incubated at 20° C. and at 100% relative humidity. Grading (% of efficacy) is carried out 6 days after the contamination, in comparison with the control plants.

Puccinia recondita = assay: In vivo preventive test on Puccinia recondita (brown rust on wheat); conditions: 500 ppm of active ingredient; wheat plants; 12 days after contamination
How it was run: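 Wheat plants ("Scipion") at 1-leaf stage, grown at 22° C, were sprayed with compound, then inoculated 24 h later with Puccinia recondita spores (100 000 spores per mL). Efficacy (%) graded 12 days after inoculation relative to solvent-treated controls.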

Leptosphaeria nodorum = assay: In vivo preventive test on Leptosphaeria nodorum (wheat); conditions: 500 ppm of active ingredient, evaluated 8 days after inoculation
Procedure: In Vivo Preventive Test on Leptosphaeria nodorum Test (Wheat) [table] To produce a suitable preparation of active compound, 1 part by weight of active compound or active compound combination is mixed with the stated amounts of solvent and emulsifier, and the concentrate is diluted with water to the desired concentration. To test for preventive activity, young plants are sprayed with the preparation of active compound or active compound combination at the stated rate of application. After the spray coating has been dried, the plants are sprayed with a spore suspension of Leptosphaeria nodorum. The plants remain for 48 hours in an incubation cabinet at approximately 20° C. and a relative atmospheric humidity of approximately 100%.

Venturia inaequalis = assay: In vivo preventive test on Venturia inaequalis (apples); conditions: 100 ppm of active ingredient, evaluated 10 days after inoculation
Procedure: In Vivo Preventive Test on Venturia inaequalis (apples) [table] To produce a suitable preparation of active compound, 1 part by weight of active compound is mixed with the stated amounts of solvent and emulsifier, and the concentrate is diluted with water to the desired concentration. To test for preventive activity, young plants are sprayed with the preparation of active compound at the stated rate of application. After the spray coating has dried on, the plants are inoculated with an aqueous conidia suspension of the causal agent of apple scab (Venturia inaequalis) and then remain for 1 day in an incubation cabinet at approximately 20° C. and a relative atmospheric humidity of 100%. The plants are then placed in a greenhouse at approximately 21° C. and a relative atmospheric humidity of approximately 90%.

Botrytis cinerea = assay: In vivo preventive test on Botrytis cinerea (grey mould); conditions: 500 ppm of active ingredient; gherkin plants; 4 to 5 days after contamination
How it was run: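 Gherkin plants at cotyledon stage Z11 were sprayed with compound, then inoculated 24 h later with Botrytis cinerea spores (50 000 spores per mL in nutrient solution). Plants were kept at 17° C and 90% RH, and percent efficacy versus solvent-treated controls was graded 4 to 5 days after contamination.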

[1] = system: Blumeria graminis f.sp. hordei; assay: In vivo preventive test on Blumeria graminis (barley); conditions: 500 ppm of active ingredient, evaluated 7 days after inoculation
Procedure: In Vivo Preventive Test on Blumeria graminis (Barley) [table] To produce a suitable preparation of active compound, 1 part by weight of active compound or active compound combination is mixed with the stated amounts of solvent and emulsifier, and the concentrate is diluted with water to the desired concentration. To test for preventive activity, young plants are sprayed with the preparation of active compound or active compound combination at the stated rate of application. After the spray coating has been dried, the plants are dusted with spores of Blumeria graminis f.sp. hordei.

Septoria tritici = assay: In vivo preventive test on Septoria tritici (wheat); conditions: 500 ppm of active ingredient; wheat plants; 24 days after contamination
How it was run: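 Scipion wheat grown at 22° C, sprayed at 1-leaf stage (10 cm); controls received acetone/tween/DMSO/water without active. Inoculated 24 h later with S. tritici spores (500 000/mL), held 72 h at 18° C, 100% RH, then 21 days at 90% RH. % efficacy vs controls scored 24 days post-inoculation.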

CC(C)c1ccc(-c2csc3ccccc23)cc1CN(C(=O)c1c(C(F)F)nn(C)c1F)C1CC1 [I.157, N-[5-(1-benzothiophen-3-yl)-2-isopropylbenzyl]-N-cyclopropyl-3-(difluoromethyl)-5-fluoro-1-methyl-1H-pyrazole-4-carboxamide]
Efficacy (Pyrenophora teres): 93% | Efficacy (Alternaria brassicae): 100% | Efficacy (Puccinia recondita): 98% | Efficacy (Leptosphaeria nodorum): 100% | Efficacy (Venturia inaequalis): 100% | Efficacy (Botrytis cinerea): 100% | Efficacy [1]: 100% | Efficacy (Septoria tritici): 90%
